Source: patent publication US8394792B2, “Heterocyclic derivatives” (C&C Research Laboratories, priority 2008, dated 2013)
≈ marks a conversion by molar mass, not a printed value. Counter-ions that a name gives are not always drawn. Like-named read-outs stand apart in the source and are kept apart here.

Experiments:
hURAT1 = biological target: T1, hURAT1 (Homo sapiens, UniProt Q96S37); assay: Test for inhibiting urate reuptake activity via hURAT1 (uric acid transport assay in hURAT1-overexpressed HEK293 cell line); assay type: cell-based; conditions: hURAT1-overexpressed HEK293 cells, [14C]-uric acid uptake, 100 μM uric acid; read-out: IC50 (μM) hURAT, level of uric acid reuptake inhibition
T1 construct: expressed in transfected cells; host or cells: HEK293 (human kidney cell line), transient transfection with Fugene6
T1 sequence (Q96S37 1-553): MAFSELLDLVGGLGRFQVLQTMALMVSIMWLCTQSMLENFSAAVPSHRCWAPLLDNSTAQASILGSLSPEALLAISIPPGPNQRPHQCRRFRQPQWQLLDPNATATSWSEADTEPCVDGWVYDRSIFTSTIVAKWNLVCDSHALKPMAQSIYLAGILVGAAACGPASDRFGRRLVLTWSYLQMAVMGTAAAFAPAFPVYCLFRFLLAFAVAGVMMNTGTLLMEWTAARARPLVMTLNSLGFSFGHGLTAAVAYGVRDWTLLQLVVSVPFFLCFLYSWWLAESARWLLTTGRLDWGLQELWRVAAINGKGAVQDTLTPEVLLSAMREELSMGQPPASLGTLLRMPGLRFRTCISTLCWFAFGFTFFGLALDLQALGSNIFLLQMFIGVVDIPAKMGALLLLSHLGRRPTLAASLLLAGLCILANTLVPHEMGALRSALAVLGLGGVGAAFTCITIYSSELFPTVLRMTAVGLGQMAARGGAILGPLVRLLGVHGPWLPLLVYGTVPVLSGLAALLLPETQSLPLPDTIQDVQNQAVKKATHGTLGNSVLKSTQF
Description: Test for Inhibiting Urate Reuptake Activity Via hURAT1
[hURAT1 Overexpression by Transient Transfection in Human Kidney Cell Line]
A human kidney cell line, HEK293 was incubated by using OptiMEM medium in 100 mm dish at (3*10^6 cells) for 24 hours. In order for the expression of hURAT1, a transfection mixture solution (Fugene6 18 μl:hURAT1 DNA 6 μg=3:1, in 600 μl OptiMEM medium/dish) was prepared and kept for 15 minutes at room temperature. To each dish, 600 μl of the mixture solution was injected and then incubated in 37[…] cell incubator for 24 hours. The hURAT1-overexpressed HEK293 cell line was trypsinized and cells were harvested. Cells were resuspended in medium and seeded at 6*10^5 cells/well and incubated for 24 hours in 24-well plate which was surface-coated with Poly-D-Lysine.
[Uric Acid Transport Assay in hURAT1-Overexpressed HEK293 Cell Line]
For each concentration, the stock sample solution was diluted in PBS (1 μl in 800 μl of PBS) as 1.25 fold concentrated working sample solution to obtain final concentrations of 0.01, 0.1, 1 and 10 μM. The hURAT1-overexpressed cell line was washed with 1 ml of PBS. After washing, PBS was discarded and the sample solution was diluted by 1.25 fold with PBS. Preincubation of cells with 200 μl/well of sample solution made above was conducted for 30 minutes in 37[…] cell incubator. After the incubation, each well was treated with 50 μl of PBS containing 500 μM [^14C]-uric acid (final 100 μM of uric acid/well). Cells were incubated for 2 minutes. The cells were washed twice with 1 ml of PBS.
To measure the uric acid uptake, each well was treated with 150 μl of M-per buffer (PIERCE) and kept in 37° C. cell incubator for 30 minutes to make cell lysates. 150 μl of cell lysates was transferred into test tube and 4 ml of scintillation cocktail was added. CPM value of [^14C]-uric acid absorbed into cells was detected using liquid scintillation counter. IC50 for the inhibition of uric acid uptake by each test sample was analyzed by computational numerical processing.

[1] = Test for solubility according to pH; assay type: physicochemical; conditions: 37 °C, thermodynamic from solid, 37° C. 2 hours
CYP2C9 = CYP2C9 (Homo sapiens, UniProt P11712); assay: biochemical
[2] = pH 1.2, simulated gastric fluid, first solution pH about 1.2, 2 mg/mL, read-out: Solubility (μg/mL) pH 1.2
[3] = pH 6.8, aqueous buffer, second solution pH about 6.8, 2 mg/mL, read-out: Solubility (μg/mL) pH 6.8

CYP2C9, sequence (P11712 whole entry): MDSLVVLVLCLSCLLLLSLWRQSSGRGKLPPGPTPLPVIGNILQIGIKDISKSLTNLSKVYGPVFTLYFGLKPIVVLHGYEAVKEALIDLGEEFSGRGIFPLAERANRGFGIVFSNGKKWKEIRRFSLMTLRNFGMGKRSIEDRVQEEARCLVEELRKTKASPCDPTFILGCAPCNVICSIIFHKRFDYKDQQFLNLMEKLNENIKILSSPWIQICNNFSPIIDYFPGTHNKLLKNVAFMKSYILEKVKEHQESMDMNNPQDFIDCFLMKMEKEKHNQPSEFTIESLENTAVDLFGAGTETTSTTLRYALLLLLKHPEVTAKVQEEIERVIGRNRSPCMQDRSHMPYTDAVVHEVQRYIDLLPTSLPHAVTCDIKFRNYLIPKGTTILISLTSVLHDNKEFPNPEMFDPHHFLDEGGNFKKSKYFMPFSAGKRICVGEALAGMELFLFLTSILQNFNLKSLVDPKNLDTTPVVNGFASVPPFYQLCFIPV

| SMILES | IC50 (hURAT1) [µM] | solubility at 2 h [1, 2] [µg/mL] | solubility at 2 h [1, 3] [µg/mL] | IC50 (CYP2C9) [µM] |
| --- | --- | --- | --- | --- |
| COc1c(Br)cc(C(=O)N2CCOc3ncc(C(F)(F)F)cc32)cc1Br [Compound 22-1, (3,5-dibromo-4-methoxy-phenyl)-(7-trifluoromethyl-2,3-dihydro-pyrido[2,3-b][1,4]oxazin-1-yl)-methanone] | 0.0888 |  |  | 13.4 |
| COc1c(Br)cc(C(=O)N2CCOc3ncc(C)cc32)cc1Br [Compound 27-1, (3,5-dibromo-4-methoxy-phenyl)-(7-methyl-2,3-dihydro-pyrido[2,3-b][1,4]oxazin-1-yl)-methanone] | 0.036 |  |  | > 20 |
| O=C(c1cc(Br)c(O)c(Br)c1)N1CCOc2ncc(-c3ccc(C(F)(F)F)cc3)cc21 [Compound 45, (3,5-dibromo-4-hydroxy-phenyl)-[7-(4-trifluoromethyl-phenyl)-2,3-dihydro-pyrido[2,3-b][1,4]oxazin-1-yl]-methanone] | 0.0197 |  |  | 1.18 |
| O=C(c1cc(Br)c(O)c(Br)c1)N1CCOc2ncc(-c3ccccc3C(F)(F)F)cc21 [Compound 46, (3,5-dibromo-4-hydroxy-phenyl)-[7-(2-trifluoromethyl-phenyl)-2,3-dihydro-pyrido[2,3-b][1,4]oxazin-1-yl]-methanone] | 0.0047 |  |  | 1.09 |
| COc1c(Br)cc(C(=O)N2CCOc3ncc(C#N)cc32)cc1Br [Compound 47-1, 1-(3,5-dibromo-4-methoxy-benzoyl)-2,3-dihydro-1H-pyrido[2,3-b][1,4]oxazin-7-carbonitrile] | 0.516 |  |  | > 20 |
| COc1c(Br)cc(C(=O)N2CCOc3ncc(-c4cccc(N(C)C)c4)cc32)cc1Br [Compound 48, (3,5-dibromo-4-methoxy-phenyl)-[7-(3-dimethylamino-phenyl)-2,3-dihydro-pyrido[2,3-b][1,4]oxazin-1-yl]-methanone] | 0.0933 |  |  | 1.68 |
| COc1c(Br)cc(C(=O)N2CCOc3ncc(-c4cccc([N+](=O)[O-])c4)cc32)cc1Br [Compound 49, (3,5-dibromo-4-methoxy-phenyl)-[7-(3-nitro-phenyl)-2,3-dihydro-pyrido[2,3-b][1,4]oxazin-1-yl]-methanone] | 0.311 |  |  | > 20 |
| COc1c(Br)cc(C(=O)N2CCOc3nc(C)ccc32)cc1Br [Compound 58, (3,5-dibromo-4-methoxy-phenyl)-(6-methyl-2,3-dihydro-pyrido[2,3-b][1,4]oxazin-1-yl)-methanone] | 0.742 |  |  | > 20 |
| O=C(c1cc(Br)c(O)c(Br)c1)N1CCOc2ncc(-c3cncc4ccccc34)cc21 [Compound 61, (3,5-dibromo-4-hydroxy-phenyl)-(7-isoquinolin-4-yl-2,3-dihydro-pyrido[2,3-b][1,4]oxazin-1-yl)-methanone] | 0.002 |  |  | 1.23 |
| O=C(c1cc(Br)c(O)c(Br)c1)N1CCOc2ncc(-c3cccc(C(F)(F)F)c3)cc21 [Compound 63, (3,5-dibromo-4-hydroxy-phenyl)-[7-(3-trifluoromethyl-phenyl)-2,3-dihydro-pyrido[2,3-b][1,4]oxazin-1-yl]-methanone] | 0.0123 |  |  | 1.11 |
| O=C(c1cc(Br)c(O)c(Br)c1)N1CCOc2ncc(-c3ccc(OC(F)(F)F)cc3)cc21 [Compound 66, (3,5-dibromo-4-hydroxy-phenyl)-[7-(4-trifluoromethoxy-phenyl)-2,3-dihydro-pyrido[2,3-b][1,4]oxazin-1-yl]-methanone] | 0.0358 |  |  | 1.34 |
| Cc1cnc2c(c1)N(C(=O)c1ccc(O)c(C(F)(F)F)c1)CCO2 [Compound 69, (4-hydroxy-3-trifluoromethyl-phenyl)-(7-methyl-2,3-dihydro-pyrido[2,3-b][1,4]oxazin-1-yl)-methanone] | 0.0331 |  |  | > 20 |

Further lines, results first:

| IC50 (hURAT1) [µM] | solubility at 2 h [1, 2] [µg/mL] | solubility at 2 h [1, 3] [µg/mL] | IC50 (CYP2C9) [µM] | SMILES |
| --- | --- | --- | --- | --- |
| 0.079 | 56.1 (≈ 135 µM) | 277 (≈ 669 µM) | 12.1 | O=C(c1cc(Br)c(O)c(Br)c1)N1CCOc2ncccc21 [Compound 1, (3,5-dibromo-4-hydroxy-phenyl)-(2,3-dihydro-pyrido[2,3-b][1,4]oxazin-1-yl)-methanone] |
| 1 | 1610 | 1890 |  | Br.O=C(c1cc(Cl)c(O)c([N+](=O)[O-])c1)N1CCOc2cnccc21 [Compound 17, (3-chloro-4-hydroxy-5-nitro-phenyl)-(2,3-dihydro-pyrido[3,4-b][1,4]oxazin-1-yl)-methanone bromic acid salt] |
| 0.0073 |  |  | > 20 | O=C(c1cc(Br)c(O)c(Br)c1)N1CCOc2ncc(Br)cc21 [Compound 25, (7-bromo-2,3-dihydro-pyrido[2,3-b][1,4]oxazin-1-yl)-(3,5-dibromo-4-hydroxy-phenyl)-methanone] |
| 0.0964 |  |  | > 20 | O=C(c1ccc(O)c(Br)c1)N1CCOc2ccncc21 [Compound 38, (3-bromo-4-hydroxy-phenyl)-(2,3-dihydro-pyrido[4,3-b][1,4]oxazin-4-yl)-methanone] |
| 0.0044 |  |  | 1.26 | O=C(c1cc(Br)c(O)c(Br)c1)N1CCOc2ncc(-c3cccc([N+](=O)[O-])c3)cc21 [Compound 50, (3,5-dibromo-4-hydroxy-phenyl)-[7-(3-nitro-phenyl)-2,3-dihydro-pyrido[2,3-b][1,4]oxazin-1-yl]-methanone] |
| 0.0115 |  |  | 8.8 | Oc1c(Br)cc(C(=S)N2CCOc3ccncc32)cc1Br [Compound 51, (3,5-dibromo-4-hydroxy-phenyl)-(2,3-dihydro-pyrido[4,3-b][1,4]oxazin-4-yl)-methanethione] |
| 0.0103 |  |  | > 20 | O=C(c1cc(Br)c(O)c(Br)c1)N1CCOc2ncc(-c3cccnc3)cc21 [Compound 52, (3,5-dibromo-4-hydroxy-phenyl)-(7-pyridin-3-yl-2,3-dihydro-pyrido[2,3-b][1,4]oxazin-1-yl]-methanone] |
| 0.0562 |  |  | 10.3 | O=C(c1cc(Br)c(O)c(Br)c1)N1CCOc2ncc(-c3ccoc3)cc21 [Compound 53, (3,5-dibromo-4-hydroxy-phenyl)-(7-furan-3-yl-2,3-dihydro-pyrido[2,3-b][1,4]oxazin-1-yl]-methanone] |
| 0.0488 |  |  | 8.87 | O=C(c1cc(Br)c(O)c(Br)c1)N1CCOc2c1cnc1ccccc21 [Compound 55, (3,5-dibromo-4-hydroxy-phenyl)-(2,3-dihydro-4-oxa-1,9-diaza-phenanthren-1-yl)-methanone] |
| 0.003 |  |  | 12.4 | N#Cc1ccc(-c2cnc3c(c2)N(C(=O)c2cc(Br)c(O)c(Br)c2)CCO3)cc1 [Compound 65, 4-[1-(3,5-dibromo-4-hydroxy-benzoyl)-2,3-dihydro-1H-pyrido[2,3-b][1,4]oxazin-7-yl]-benzonitrile] |
| 0.0232 |  |  | 1.39 | COc1cncc(-c2cnc3c(c2)N(C(=O)c2cc(Br)c(O)c(Br)c2)CCO3)c1 [Compound 68, (3,5-dibromo-4-hydroxy-phenyl)-[7-(5-methoxy-pyridin-3-yl)-2,3-dihydro-pyrido[2,3-b][1,4]oxazin-1-yl]-methanone] |
| 0.006 |  |  | 16.7 | Oc1c(Br)cc(C(=S)N2CCOc3ccncc32)cc1Br [Compound 74, (3,5-dibromo-4-hydroxy-phenyl)-(2,3-dihydro-pyrido[4,3-b][1,4]oxazin-4-yl)-methanethione trifluoroacetic acid salt] |
